# Key:
# [1] = biological target: T1, Lm CdaA (∆100CdaA) (Listeria monocytogenes, UniProt Q8Y5E4); test: crystal structure by soaking; assay type: binding; settings: active site, chain A
# T1 construct: gene dacA; DAC domain, lacks transmembrane domain and linker (first 100 residues deleted); N-terminal GST tag cut with PreScission protease; plasmid pGEXpBP33, E. coli BL21(DE3); residues to at least 268 mentioned (96-104 and 256-268 disordered); non-catalytic back-to-back dimer in crystal
# T1 sequence (Q8Y5E4 101-273): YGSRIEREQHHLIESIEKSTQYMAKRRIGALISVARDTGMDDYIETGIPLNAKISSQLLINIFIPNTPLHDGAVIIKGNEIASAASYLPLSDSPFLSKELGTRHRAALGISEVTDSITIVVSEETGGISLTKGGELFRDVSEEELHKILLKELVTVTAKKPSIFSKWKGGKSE
# [2] = biological target: T1, Lm CdaA (∆100CdaA); test: ITC, […] binding model
SMILES,crystal structure by soaking [1],Kd [2] [µM]
Nc1ncnc2c1ncn2[C@@H]1O[C@H](CO)[C@@H](O)[C@H]1O [adenosine],"we have determined crystal structures of CdaA complexes with adenine (Fig. 3B), adenosine (Fig. 3C)",–
CC(=O)Nc1nc(C)c(-c2csc(N)n2)s1 [compound 7],–,16.3 ± 2.5
